The text below walks through data of patent EP2527332A1, “4-Aryl-N-phenyl-1,3,5-triazin-2-amines containing a sulfoximine group as CDK9 inhibitors” (Bayer Intellectual Property GmbH, priority 2011, dated 2012).

Like-named read-outs stand apart in the source and are kept apart here. Bounds are passed on as bounds.

For data set [1], the system named is HeLa cell. The data set is described as follows: Proliferation assay (crystal violet), HeLa. It counts as cell-based, human. As to conditions: 4 days incubation, read-out: Inhibition of HeLa cell proliferation IC50. The procedure: (§1) After 24 hours, the cells of one plate (zero-point plate) were stained with crystal violet (see below), while the medium of the other plates was replaced by fresh culture medium (200 µL), to which the test substances were added in various concentrations (0 µM, as well as in the range of 0.001-10 µM; the final concentration of the solvent dimethyl sulfoxide was 0.5%). The cells were incubated for 4 days in the presence of test substances. Cell proliferation was determined by staining the cells with crystal violet: the cells were fixed by adding 20 µL/measuring point of an 11% glutaric aldehyde solution for 15 minutes at room temperature. After three washing cycles of the fixed cells with water, the plates were dried at room temperature. The cells were stained by adding 100 µL/measuring point of a 0.1% crystal violet solution (pH 3.0). After three washing cycles of the stained cells with water, the plates were dried at room temperature. The dye was dissolved by adding 100 µL/measuring point of a 10% acetic acid solution. […] The change of cell number, in percent, was calculated by normalization of the measured values to the absorbance values of the zero-point plate (=0%) and the absorbance of the untreated (0 µM) cells (=100%). The IC50 values were determined by means of a 4 parameter fit using the company's own software.

In data set [2] the test system is HeLa/MaTu/ADR cell. The data set is described as follows: Proliferation assay (crystal violet), HeLa/MaTu/ADR. It is filed as cell-based, human. Particulars: HeLa/MaTu/ADR (multidrug-resistant), 4 days incubation, read-out: Inhibition of HeLa/MaTu/ADR cell proliferation IC50. The procedure:
as §1

Data set [3] concerns H460 cell. The data set is described as follows: Proliferation assay (crystal violet), H460. Particulars: Homo sapiens, NCI-H460, 96 h; H460, 4 days incubation; read-out: Inhibition of H460 cell proliferation (activity range) IC50. It is filed as cell-based. The procedure: as §1
The test system of data set [4] is DU145 cell. The data set is described as follows: Proliferation assay (crystal violet), DU145. It is filed as cell-based, human. Particulars: DU145, 4 days incubation, read-out: Inhibition of DU145 cell proliferation IC50. The procedure: as §1
Data set [5] concerns CACO-2 cell. The data set is described as follows: Proliferation assay (crystal violet), CACO-2. As to conditions: Homo sapiens, 96 h; CACO-2, 4 days incubation; read-out: Inhibition of CACO-2 cell proliferation IC50. It is filed as cell-based. As for the experimental part: as §1
Data set [6] relates to B 16F 10 cell. The data set is described as follows: Proliferation assay (crystal violet), B16F10. It is filed as cell-based, mouse. Particulars: B16F10, 4 days incubation, read-out: Inhibition of B 16F 10 cell proliferation IC50. The procedure:
as §1

The nature of data set [7]: Equilibrium shake flask solubility assay. It counts as physicochemical. Particulars: phosphate buffer pH 6.5, 24 hrs, room temperature; 1440 min. As for the experimental part: 4. Equilibrium Shake Flask Solubility Assay:
The thermodynamic solubility of compounds in water was determined by an equilibrium shake flask method (see for example: E.H. Kerns, L. Di: Drug-like Properties: Concepts, Structure Design and Methods, 276-286, Burlington, MA, Academic Press, 2008). A saturated solution of the drug was prepared and the solution was mixed for 24 h to ensure that equilibrium was reached. The solution was centrifuged to remove the insoluble fraction and the concentration of the compound in solution was determined using a standard calibration curve.
To prepare the sample, 2 mg solid compound was weighed in a 4 mL glass vial. 1 mL phosphate buffer pH 6.5 was added. The suspension was stirred for 24 hrs at room temperature. The solution was centrifuged afterwards. To prepare the sample for the standard calibration, 2 mg solid sample was dissolved in 30 mL acetonitrile. After sonification the solution was diluted with water to 50 mL.. Sample and standards were quantified by HPLC with UV-detection. For each sample two injection volumes (5 and 50 µl) in triplicates were made. Three injection volumes (5 µl, 10 µl and 20 µl) were made for the standard.
The areas of sample- and standard injections as well as the calculation of the solubility value (in mg/l) were determined by using HPLC software (Waters Empower 2 FR).

Take `CCOC(=O)N=S(C)(=O)Cc1cccc(Nc2ncnc(-c3ccc(F)cc3OC)n2)c1` (racemic) [Compound 1, (rac)-Ethyl [(3-{[4-(4-fluoro-2-methoxyphenyl)-1,3,5-triazin-2-yl]amino}benzyl)(methyl)oxido-λ^6-sulfanylidene]carbamate]: the IC50 in data set [1] (Homo sapiens, 96 h) turned out to be 1000 nM; in data set [2] (Homo sapiens, 96 h), 380 nM; in data set [3], 360 nM; in data set [4] (Homo sapiens, DU-145, 96 h), 390 nM; in data set [5] it was 390 nM; in data set [6] (Mus musculus, B16-F10, 96 h) it was 360 nM.
For the compound `COc1cc(F)ccc1-c1ncnc(Nc2cccc(CS(C)(=N)=O)c2)n1` (racemic) [Compound 2, (rac)-4-(4-Fluoro-2-methoxyphenyl)-N-{3-[(S-methylsulfonimidoyl)methyl]phenyl}-1,3,5-triazin-2-amine], the IC50 in data set [1] (Homo sapiens, 96 h) is 1100 nM.
For the compound `CS(=N)(=O)Cc1cccc(Nc2ncnc(-c3ccc(F)cc3OCc3ccccc3)n2)c1` (racemic) [Compound 6, (rac)-4-[2-(Benzyloxy)-4-fluorophenyl]-N-{3-[(S-methylsulfonimidoyl)methyl]phenyl}-1,3,5-triazin-2-amine], the IC50 in data set [1] (Homo sapiens, 96 h) is under 100 nM; in data set [2] (Homo sapiens, 96 h), 200 nM; in data set [3], 160 nM; in data set [4] (Homo sapiens, DU-145, 96 h) it was 180 nM; in data set [5] it was 270 nM; in data set [6] (Mus musculus, B16-F10, 96 h) it was 250 nM.
On to `CCOC(=O)N=S(C)(=O)Cc1cccc(Nc2ncnc(-c3cc(F)c(F)cc3OC)n2)c1` (racemic) [Compound 9, (rac)-Ethyl [(3-{[4-(4,5-difluoro-2-methoxyphenyl)-1,3,5-triazin-2-yl]amino}benzyl)(methyl)oxido-λ^6-sulfanylidene]carbamate], for which, in data set [1] (Homo sapiens, 96 h), the IC50 turned out to be 400 nM.
`COc1cc(F)ccc1-c1ncnc(Nc2cccc(CS(C)(=N)=O)c2)n1` (single isomer, unassigned; (+)) [Compound 4, (+)-4-(4-Fluoro-2-methoxyphenyl)-N-{3-[(S-methylsulfonimidoyl)methyl]phenyl}-1,3,5-triazin-2-amine]: the IC50 in data set [1] stood at 970 nM; in data set [2], 440 nM; in data set [4], 670 nM; in data set [6], 1000 nM. Besides, the “Solubilty in mg/l. (thermodynamic solubility in water)” value in data set [7] was 479 µg/mL.
For the compound `COc1cc(F)ccc1-c1ncnc(Nc2cccc(CS(C)(=N)=O)c2)n1` (single isomer, unassigned; (-)) [Compound 3, (-)-4-(4-Fluoro-2-methoxyphenyl)-N-{3-[(S-methylsulfonimidoyl)methyl]phenyl}-1,3,5-triazin-2-amine], the IC50 was determined as 1100 nM in data set [1] (Homo sapiens, 96 h); 400 nM in data set [2] (Homo sapiens, HeLa, 96 h); 740 nM in data set [4] (Homo sapiens, DU-145, 96 h); 1000 nM in data set [6] (Mus musculus, B16-F10, 96 h).
